Measured values from patent US20250154109A1, “SODIUM CHANNEL BLOCKING COMPOUNDS, DERIVATIVES THEREOF, AND METHODS OF THEIR USE” (LATIGO BIOTHERAPEUTICS, INC, priority 2022, published 2025).
Read-outs that look alike come from different tables or passages of the source.

Molecular target: human Nav1.8 (Homo sapiens, UniProt Q9Y5Y9)
Test: SyncroPatch384PE assay (automated patch clamp)
Type: cell-based
Conditions: human Nav1.8/b3 CHO cells
[1] = inactivated state block (P2 measurement), read-out: P2 IC50
[2] = resting state block (P1 measurement), read-out: P1 IC50

Sequence of human Nav1.8 (Q9Y5Y9 whole entry): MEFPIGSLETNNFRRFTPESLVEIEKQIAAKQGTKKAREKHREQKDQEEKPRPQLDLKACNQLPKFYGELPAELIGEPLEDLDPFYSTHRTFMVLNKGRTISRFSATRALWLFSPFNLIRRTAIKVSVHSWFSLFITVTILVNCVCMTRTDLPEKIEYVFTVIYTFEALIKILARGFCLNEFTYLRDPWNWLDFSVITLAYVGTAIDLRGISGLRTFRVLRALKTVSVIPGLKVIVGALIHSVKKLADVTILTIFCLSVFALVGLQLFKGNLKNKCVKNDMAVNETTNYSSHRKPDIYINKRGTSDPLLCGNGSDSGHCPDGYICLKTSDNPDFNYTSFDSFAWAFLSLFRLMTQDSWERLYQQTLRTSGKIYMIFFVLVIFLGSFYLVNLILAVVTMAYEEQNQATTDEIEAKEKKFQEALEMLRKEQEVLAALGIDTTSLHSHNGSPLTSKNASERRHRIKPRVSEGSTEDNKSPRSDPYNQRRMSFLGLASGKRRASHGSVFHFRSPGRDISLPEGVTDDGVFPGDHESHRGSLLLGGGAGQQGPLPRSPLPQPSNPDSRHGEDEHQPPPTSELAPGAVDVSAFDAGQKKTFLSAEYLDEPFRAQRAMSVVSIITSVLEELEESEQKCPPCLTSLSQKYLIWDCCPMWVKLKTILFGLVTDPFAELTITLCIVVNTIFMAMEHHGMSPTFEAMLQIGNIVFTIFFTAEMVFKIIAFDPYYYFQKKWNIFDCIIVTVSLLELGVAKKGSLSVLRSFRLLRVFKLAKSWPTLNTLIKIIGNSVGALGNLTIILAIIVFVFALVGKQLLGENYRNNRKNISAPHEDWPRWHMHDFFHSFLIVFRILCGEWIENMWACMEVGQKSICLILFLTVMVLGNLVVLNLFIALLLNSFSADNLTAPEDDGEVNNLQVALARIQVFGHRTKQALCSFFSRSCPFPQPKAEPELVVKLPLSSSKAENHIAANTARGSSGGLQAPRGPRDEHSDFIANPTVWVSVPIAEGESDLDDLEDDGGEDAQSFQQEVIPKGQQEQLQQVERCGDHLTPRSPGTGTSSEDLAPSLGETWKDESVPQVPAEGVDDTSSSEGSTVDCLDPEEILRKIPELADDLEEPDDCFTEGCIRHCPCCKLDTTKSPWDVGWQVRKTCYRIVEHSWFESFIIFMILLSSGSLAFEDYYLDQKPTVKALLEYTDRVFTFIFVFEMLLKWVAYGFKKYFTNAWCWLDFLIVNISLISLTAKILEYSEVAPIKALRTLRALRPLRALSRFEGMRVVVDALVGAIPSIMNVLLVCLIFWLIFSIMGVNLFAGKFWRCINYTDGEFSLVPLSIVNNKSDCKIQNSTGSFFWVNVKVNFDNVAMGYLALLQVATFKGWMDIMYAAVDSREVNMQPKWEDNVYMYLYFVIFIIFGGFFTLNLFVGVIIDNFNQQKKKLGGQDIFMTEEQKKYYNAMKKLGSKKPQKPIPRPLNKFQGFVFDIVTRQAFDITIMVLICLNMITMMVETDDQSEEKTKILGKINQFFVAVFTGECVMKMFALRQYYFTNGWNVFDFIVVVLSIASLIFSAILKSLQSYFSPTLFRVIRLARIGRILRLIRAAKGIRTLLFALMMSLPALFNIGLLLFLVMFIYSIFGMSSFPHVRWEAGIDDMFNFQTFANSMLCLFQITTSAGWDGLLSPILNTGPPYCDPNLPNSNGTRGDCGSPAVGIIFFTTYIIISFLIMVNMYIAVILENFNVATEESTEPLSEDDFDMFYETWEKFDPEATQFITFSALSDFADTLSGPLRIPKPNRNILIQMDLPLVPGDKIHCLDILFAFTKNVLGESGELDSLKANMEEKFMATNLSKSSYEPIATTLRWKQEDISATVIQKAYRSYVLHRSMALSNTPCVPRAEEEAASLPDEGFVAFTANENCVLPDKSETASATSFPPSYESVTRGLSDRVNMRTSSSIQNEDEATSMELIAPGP

| IC50 [1] | IC50 [2] | Compound |
| --- | --- | --- |
| 100 to 200 nM | 100 to 200 nM | Cc1c(-c2cnn(C)c2)cnc(N2CCCC(F)(F)CC2)c1C(=O)Nc1ccnc([S@](C)(=N)=O)c1 [Example 200, (R)-2-(4,4-difluoroazepan-1-yl)-4-methyl-5-(1-methyl-1H-pyrazol-4-yl)-N-(2-(S-methylsulfonimidoyl)pyridin-4-yl)nicotinamide] |
| ≤ 5 nM | ≤ 5 nM | Cc1c(-c2ccccc2)cnc(N2CCCC(F)(F)CC2)c1C(=O)Nc1cccc([S@@](C)(=N)=O)c1 [Example 103, (S)-2-(4,4-difluoroazepan-1-yl)-4-methyl-N-(3-(S-methylsulfonimidoyl)phenyl)-5-phenylnicotinamide] |
| ≤ 5 nM | ≤ 5 nM | Cc1nc(N2CCC3(CC2)CC3)c(C(=O)Nc2cccc([S@@](C)(=N)=O)c2)cc1Cl [Example 27, (S)-5-Chloro-6-methyl-N-(3-(S-methylsulfonimidoyl)phenyl)-2-(6-azaspiro[2.5]octan-6-yl)nicotinamide] |
| > 200 nM | > 200 nM | Cc1n[nH]c(C)c1-c1cnc(N2CCCC(F)(F)CC2)c(C(=O)Nc2cccc([S@](C)(=N)=O)c2)c1C [Example 152, (R)-2-(4,4-difluoroazepan-1-yl)-5-(3,5-dimethyl-1H-pyrazol-4-yl)-4-methyl-N-(3-(S-methylsulfonimidoyl)phenyl)nicotinamide] |
| ≤ 5 nM | ≤ 5 nM | Cc1nc(N2CCCC(F)(F)CC2)c(C(=O)Nc2cccc(S(C)(=N)=O)c2)c(C)c1Cl (stereo not drawn) [Example 106, 5-chloro-2-(4,4-difluoroazepan-1-yl)-4,6-dimethyl-N-(3-(S-methylsulfonimidoyl)phenyl)nicotinamide] |

More lines, now with the values behind:

| Compound | IC50 [1] | IC50 [2] |
| --- | --- | --- |
| Cc1c(Cl)c(C#N)nc(N2CCCC(F)(F)CC2)c1C(=O)Nc1cccc([S@](C)(=N)=O)c1 [Example 171, (R)-5-chloro-6-cyano-2-(4,4-difluoroazepan-1-yl)-4-methyl-N-(3-(S-methylsulfonimidoyl)phenyl)nicotinamide] | ≤ 5 nM | ≤ 5 nM |
| CNCCN=[S@](C)(=O)c1cccc(NC(=O)c2c(N3CCCC(F)(F)CC3)ncc(Br)c2C)c1 [Example 211, (R)-5-bromo-2-(4,4-difluoroazepan-1-yl)-4-methyl-N-(3-(S-methyl-N-(2-(methylamino)ethyl)sulfonimidoyl)phenyl)nicotinamide 2,2,2-trifluoroacetate] | ≤ 5 nM | ≤ 5 nM |
| O=C(Nc1cc[nH]c(=O)c1)c1nnc(C(F)(F)F)cc1N1CCCC(F)(F)CC1 [Example 40, 4-(4,4-Difluoroazepan-1-yl)-N-(2-oxo-1,2-dihydropyridin-4-yl)-6-(trifluoromethyl)pyridazine-3-carboxamide] | > 200 nM | > 200 nM |
| Cc1nc(C(F)(F)F)nc(N2CCCC(F)(F)CC2)c1C(=O)Nc1cccc([S@@](C)(=N)=O)c1 [Example 143, (S)-4-(4,4-difluoroazepan-1-yl)-6-methyl-N-(3-(S-methylsulfonimidoyl)phenyl)-2-(trifluoromethyl)pyrimidine-5-carboxamide] | 50 to 100 nM | 50 to 100 nM |
| Cc1c(-c2cnn(C)c2)cnc(N2CCCC(F)(F)CC2)c1C(=O)Nc1cccc([S@@](C)(=O)=NC(=O)[C@@H](C)N)c1 [Example 75, N-(3-((R)-N-(D-alanyl)-S-methylsulfonimidoyl)phenyl)-2-(4,4-difluoroazepan-1-yl)-4-methyl-5-(1-methyl-1H-pyrazol-4-yl)nicotinamide] | 5 to 50 nM | 5 to 50 nM |
| Cc1nn(C)cc1-c1cnc(N2CCCC(F)(F)CC2)c(C(=O)Nc2cccc([S@](C)(=N)=O)c2)c1C [Example 146, (R)-2-(4,4-difluoroazepan-1-yl)-5-(1,3-dimethyl-1H-pyrazol-4-yl)-4-methyl-N-(3-(S-methylsulfonimidoyl)phenyl)nicotinamide] | > 200 nM | > 200 nM |
| Cc1c(C(F)(F)F)cnc(N2CCCC(F)(F)CC2)c1C(=O)Nc1ccnc([S@](C)(=N)=O)c1 (single isomer, unassigned) [Example 189] | ≤ 5 nM | ≤ 5 nM |
